# Columns and labels:
# [1] = test system: Peripheral Blood Mononuclear Cells; test: PepChip kinome array: in vitro phosphorylation of peptide array by lysates of LPS-stimulated PBMCs; assay type: cell-based, human
# Protocol: Peripheral Blood Mononuclear Cells (PBMCs) were isolated from peripheral blood from healthy volunteers using standard density-gradient centrifugation over Ficoll-Paque Plus (Amersham Pharmacia Biotech AB, Uppsala, Sweden) after washing in resuspension in IMDM supplemented with 10% FBS, penicillin, streptomycin and amphotericin (hereafter referred to as complete IMDM).
# For kinome array samples, 10^7 PBMCs were suspended in 5 ml media (IMDM supplemented with 1.0% human serum). LPS stimulation consisted of a […] (37° C., 5% CO2) with 100 ng/ml LPS (E. coli, serotype 0111:B4). CNI treated PBMCs were maintained in media dosed with 1.0 μM CNI-1493 (Cytokine PharmaSciences, Inc.) 1 hour before and during incubation for LPS stimulation. Stimulations were terminated by an ice-cold PBS wash. PBMCs were lysed in 200 μl cell lysis buffer (20 mM Tris-HCl (pH 7.5), 150 mM NaCl, 1 mM Na2EDTA, 1 mM EGTA, 1% Triton, 2.5 mM sodium pyrophosphate, 1 mM MgCl2, 1 mM beta-glycerophosphate, 1 mM Na3VO4, 1 mM NaF, 1 μg/ml leupeptin, 1 μg/ml aprotinin, 1 mM PMSF) and the volume of the cell lysate were equalised with dH2O. The cell lysates were subsequently cleared on a 0.22 μm filter. PepChip incubation mix was produced by adding 10 μl of filter-cleared activation mix (50% glycerol, 50 μM ATP, 0.05% v/v Brij-35, 0.25 mg/ml BSA, ^33P-γ-ATP (1000 kBq)). Next, the PepChip mix is added onto the chip and the chip is kept at 37° C. in a humidified stove for 90 minutes. Subsequently, the PepChip was washed once with TBST, twice in 2M NaCl and twice in demineralised H2O and air-dry the PepChip slips. The experiments were performed three times in duplicate. The average inter-experimental variance in relative values was less than 5% for all spots.
# The chips were exposed to a phosphoimager plate for 72 hours and the spots were analysed on AIDA analysing software. For graphical visualisation of the spots in FIG. 2 the data of four arrays was averaged to eliminate false positives.
# 4/4 macrophages = test: Western blot of LPS-stimulated 4/4 macrophages for MAPK signaling molecules; assay type: cell-based, murine; details: 0.1 and 1 μM, 1 hour pre-incubation, LPS 100 ng/ml 15 minutes
# Protocol: 4/4 macrophages were used for in vitro experiments and western blot analysis. An in vitro kinase assay was performed to reconfirm findings obtained with western blotting. […] 4/4 macrophages were grown to 70% confluence, pre-incubated for 1 hour with Semapimod (0.1 and 1 μM) and stimulated with LPS (100 ng/ml) for 15 minutes. Cells were harvested in sample buffer and whole cell lysates were loaded onto 10% SDS-PAGE and subsequently transferred to a PVDF membrane. Blots were stained with phospho-specific antibodies for various MAPK signaling molecules. […] Importantly, pRaf protein levels and pPak, upstream of Raf, were not affected due to Semapimod incubation. […] FIG. 6 Western blot: Reduced pP38, pJnk, pErk in 4/4 macrophages treated with Semapimod (1 and 0.1 μM) in LPS present conditions was seen. Moreover, the phosphorylation status of MKK4/7 (upstream of Jnk), and Mek1/2 (upstream of Erk) was affected due to Semapimod treatment. pRaf expression was not influenced by Semapimod. To test for equal loading, western blots were analyzed for actin expression. Similar results were obtained in three independent experiments.
# [2] = lysates of Semapimod-treated, lipopolysaccharide-stimulated PBMCs
compound,measurement,setting,value
C/C(=N\NC(=N)N)c1cc(NC(=O)CCCCCCCCC(=O)Nc2cc(/C(C)=N/NC(=N)N)cc(/C(C)=N/NC(=N)N)c2)cc(/C(C)=N/NC(=N)N)c1 [Semapimod],"LPS + CNI: peptide phosphorylation, Kinase not given, Substrate GS","[1]; PBMC lysate, 1.0 μM CNI-1493, 100 ng/ml LPS, Control 9758, LPS 17052",24415
same,"LPS + CNI: peptide phosphorylation, Kinase p38, Substrate MAPKAP2","[1]; PBMC lysate, 1.0 μM CNI-1493, 100 ng/ml LPS, Control 10168, LPS 21440",1150
same,"LPS + CNI: peptide phosphorylation, Kinase PKC, Substrate c-Src","[1]; PBMC lysate, 1.0 μM CNI-1493, 100 ng/ml LPS, Control 10728, LPS 10416",17000
same,"LPS + CNI: peptide phosphorylation, Kinase PKC, Substrate c-RAF","[1]; PBMC lysate, 1.0 μM CNI-1493, 100 ng/ml LPS, Control 10764, LPS 13640",9522
same,"LPS + CNI: peptide phosphorylation, Kinase not given, Substrate Tau","[1]; PBMC lysate, 1.0 μM CNI-1493, 100 ng/ml LPS, Control 15846, LPS 10500",27753
same,"LPS + CNI: peptide phosphorylation, Kinase v-Fps, Substrate Caldesmon","[1]; PBMC lysate, 1.0 μM CNI-1493, 100 ng/ml LPS, Control 16002, LPS 22800",31584
same,"LPS + CNI: peptide phosphorylation, Kinase and Substrate not given","[1]; PBMC lysate, 1.0 μM CNI-1493, 100 ng/ml LPS, Control 16320, LPS 822",300
same,"LPS + CNI: peptide phosphorylation, Kinase not given, Substrate GS","[1]; PBMC lysate, 1.0 μM CNI-1493, 100 ng/ml LPS, Control 16920, LPS 19500",23664
same,"LPS + CNI: peptide phosphorylation, Kinase CKII, Substrate GS","[1]; PBMC lysate, 1.0 μM CNI-1493, 100 ng/ml LPS, Control 17680, LPS 5350",13120
same,"LPS + CNI: peptide phosphorylation, Kinase Lck, Substrate Tec","[1]; PBMC lysate, 1.0 μM CNI-1493, 100 ng/ml LPS, Control 18096, LPS 13824",300
same,"LPS + CNI: peptide phosphorylation, Kinase PKC, Substrate Trop","[1]; PBMC lysate, 1.0 μM CNI-1493, 100 ng/ml LPS, Control 18786, LPS 23230",40000
same,"LPS + CNI: peptide phosphorylation, Kinase not given, Substrate GS","[1]; PBMC lysate, 1.0 μM CNI-1493, 100 ng/ml LPS, Control 20736, LPS 20592",26477
same,"LPS + CNI: peptide phosphorylation, Kinase p34cdc2, Substrate Lamin B1","[1]; PBMC lysate, 1.0 μM CNI-1493, 100 ng/ml LPS, Control 21000, LPS 11165",300
same,"LPS + CNI: peptide phosphorylation, Kinase not given, Substrate EIF4F","[1]; PBMC lysate, 1.0 μM CNI-1493, 100 ng/ml LPS, Control 21000, LPS 25200",24624
same,"LPS + CNI: peptide phosphorylation, Kinase PKC, Substrate BICKS","[1]; PBMC lysate, 1.0 μM CNI-1493, 100 ng/ml LPS, Control 23400, LPS 38086",15980
same,"LPS + CNI: peptide phosphorylation, Kinase PKC, Substrate MARCKS","[1]; PBMC lysate, 1.0 μM CNI-1493, 100 ng/ml LPS, Control 23714, LPS 16401",13426
same,"LPS + CNI: peptide phosphorylation, Kinase not given, Substrate MBP","[1]; PBMC lysate, 1.0 μM CNI-1493, 100 ng/ml LPS, Control 26208, LPS 36442",51888
same,"LPS + CNI: peptide phosphorylation, Kinase not given, Substrate Vimentin","[1]; PBMC lysate, 1.0 μM CNI-1493, 100 ng/ml LPS, Control 26240, LPS 30889",59840
same,"LPS + CNI: peptide phosphorylation, Kinase not given, Substrate MBP","[1]; PBMC lysate, 1.0 μM CNI-1493, 100 ng/ml LPS, Control 26481, LPS 23852",51414
same,"LPS + CNI: peptide phosphorylation, Kinase p42/44, Substrate MBP","[1]; PBMC lysate, 1.0 μM CNI-1493, 100 ng/ml LPS, Control 28710, LPS 536",23296
same,"LPS + CNI: peptide phosphorylation, Kinase not given, Substrate GS","[1]; PBMC lysate, 1.0 μM CNI-1493, 100 ng/ml LPS, Control 31500, LPS 31050",51102
same,"LPS + CNI: peptide phosphorylation, Kinase p42/44, Substrate MBP","[1]; PBMC lysate, 1.0 μM CNI-1493, 100 ng/ml LPS, Control 33814, LPS 14514",26352
same,"LPS + CNI: peptide phosphorylation, Kinase PKA, Substrate MARCKS","[1]; PBMC lysate, 1.0 μM CNI-1493, 100 ng/ml LPS, Control 34295, LPS 31647",62514
same,"LPS + CNI: peptide phosphorylation, Kinase not given, Substrate c-Src","[1]; PBMC lysate, 1.0 μM CNI-1493, 100 ng/ml LPS, Control 34410, LPS 2470",319
same,"LPS + CNI: peptide phosphorylation, Kinase not given, Substrate Vimentin","[1]; PBMC lysate, 1.0 μM CNI-1493, 100 ng/ml LPS, Control 37760, LPS 18020",44200
same,"LPS + CNI: peptide phosphorylation, Kinase not given, Substrate MBP","[1]; PBMC lysate, 1.0 μM CNI-1493, 100 ng/ml LPS, Control 38634, LPS 36464",38354
same,"LPS + CNI: peptide phosphorylation, Kinase not given, Substrate MBP","[1]; PBMC lysate, 1.0 μM CNI-1493, 100 ng/ml LPS, Control 40793, LPS 36600",55572
same,"LPS + CNI: peptide phosphorylation, Kinase PKC, Substrate MBP","[1]; PBMC lysate, 1.0 μM CNI-1493, 100 ng/ml LPS, Control 47940, LPS 18624",15680
same,"LPS + CNI: peptide phosphorylation, Kinase not given, Substrate MLC-2","[1]; PBMC lysate, 1.0 μM CNI-1493, 100 ng/ml LPS, Control 48400, LPS 53482",33674
same,"LPS + CNI: peptide phosphorylation, Kinase not given, Substrate MBP","[1]; PBMC lysate, 1.0 μM CNI-1493, 100 ng/ml LPS, Control 60630, LPS 62900",65076
same,"LPS + CNI: peptide phosphorylation, Kinase PKA, p42/44, Substrate CgA","[1]; PBMC lysate, 1.0 μM CNI-1493, 100 ng/ml LPS, Control 62088, LPS 548",6700
same,capacity to phosphorylate peptides representing consensus sequences for MAP kinase family members,[1]; [2],strongly impaired
same,phosphorylation of a peptide representing a consensus phosphorylation site for MEK kinase,[1]; [2],inhibited
same,phosphorylation of a peptide representing the PKC consensus phosphorylation site in c-Raf,[1]; [2],not impaired
same,expression of pMKK4/7,4/4 macrophages,reduced expression
same,expression of pMek1/2,4/4 macrophages,reduced expression
same,"pPak, upstream of Raf",4/4 macrophages,not affected
same,pRaf protein levels,4/4 macrophages,not affected
same,phosphorylated-Erk1/2,4/4 macrophages,decrease
same,phosphorylated-Jnk,4/4 macrophages,decrease
same,phosphorylated-P38,4/4 macrophages,decrease

# Source: patent US20090036540A1, “Guanylhydrazones in Methods of Treatment or Diagnosis as Modulators of Signal Transduction” (Cytokine PharmaSciences, Inc., priority 2003, published 2009)
